ChEMBL document CHEMBL5729531, “Neprilysin inhibitors” (2023)

Biological target: Neprilysin/Angiotensin-converting enzyme (Homo sapiens, UniProt P12821+P08473)
Assay: Enzyme Inhibition Assay: The assays were performed in 384-well white opaque plates at 37° C. using the fluorogenic peptide substrates at a concentration of 10 μM in Assay Buffer (NEP: 50 mM HEPES, pH 7.5, 100 mM NaCl, 0.01% polyethylene glycol sorbitan monolaurate (Tween-20), 10 μM ZnSO4; ACE: 50 mM HEPES, pH 7.5, 100 mM NaCl, 0.01% Tween-20, 1 μM ZnSO4). The respective enzymes were used at …
Format: protein-complex assay
Description: Enzyme Inhibition Assay: The assays were performed in 384-well white opaque plates at 37° C. using the fluorogenic peptide substrates at a concentration of 10 μM in Assay Buffer (NEP: 50 mM HEPES, pH 7.5, 100 mM NaCl, 0.01% polyethylene glycol sorbitan monolaurate (Tween-20), 10 μM ZnSO4; ACE: 50 mM HEPES, pH 7.5, 100 mM NaCl, 0.01% Tween-20, 1 μM ZnSO4). […] Test compounds were added to the enzymes and incubated for 30 minute at 37° C. prior to initiating the reaction by the addition of substrate. Reactions were terminated after 20 minutes of incubation at 37° C. by the addition of glacial acetic acid to a final concentration of 3.6% (v/v).

O=C(O)C(=O)NC(Cc1ccc(-c2ccccc2)cc1)CC(O)C(=O)O (stereo unspecified)
Ki: 35.5 nM
